Assay type in all cases: cell-based, Zymomonas mobilis
Assay [1] deals with ZW658 strain. As to the kind of experiment: Tube fermentation of ZW658 on glucose and xylose with various sugar alcohols (Example 14). Here is the method:
(§1) Approximately 1 ml of well mixed sample was obtained from flask or fermentor. First the sample absorbance was measured directly with a spectrophotometer (Amersham Biosciences Ultrospec 3300pro, GE Healthcare, Piscataway, N.J., USA). If the reading was lower than 0.6 unit, no dilution was needed. If the reading was higher than 0.6 unit, the sample was diluted with culture medium until the actual reading was in the range of 0.1 to 0.6 unit. The original OD was calculated from the dilution ratio and the actual reading.
(§2) The analysis of sugars, acetate, ethanol, and other by-products was done with an Agilent 1100 series HPLC and Agilent ChemStation software for LC 3D. The column was BioRad Aminex HPX-87H(HPLC Organic Analysis Column 125-0140) with BioRad Micro-Guard Cartridge Cation-H (125-0129). The operating conditions were:
In six sterilized 50 ml screw-cap centrifuge tubes (Cat. No. 21008-178, VWR International, USA), 200 μl of ZW658 strain glycerol stock at OD600 of approximately 10 was inoculated into each flask with 25 ml of aqueous solution containing 92 g/L glucose, 82 g/L xylose, 10 g/L yeast extract (YE), 2 g/L KH2PO4, 1 g/L MgSO4.7H2O, and 10 mM of D-sorbitol, L-sorbitol, D-threitol, myo-inositol, or xylitol. The control had no addition of sugar alcohol. Initial pH was adjusted to 5.5 with 4 N H3PO4 solution. Fermentation was conducted at 33° C. and pH was not controlled. Samples were taken periodically between 0 and 48 hr. Samples were filtered through 0.22 micron filters, and the filtrates were analyzed by HPLC as described in General Methods for glucose, xylose, xylitol, and ethanol. Samples were diluted with medium (as described in General Methods) and the OD600 was measured to monitor cell growth. Results of growth and glucose utilization are given in FIGS. 22A and 22B, respectively. Results of xylose utilization and ethanol production are given in FIGS. 23A and 23B, respectively. Cultures with D-sorbitol or L-sorbitol grew faster and better than the control. After 48 hours, the OD600 were 6.2 and 5.2, respectively, for cultures supplemented with D-sorbitol or L-sorbitol; while the OD600 were less than 1 for other cultures. […] The presence of D-sorbitol or L-sorbitol allowed more xylose utilization, without production of xylitol.

The test system of assay [2] is ZW658 strain. As to the kind of experiment: 1-liter fermentor, ZW658 on high concentration glucose and xylose with sorbitol or glutamate. As for the experimental part: as §1, §2
(§3) Glycerol stock of seed frozen at −80° C. was thawed, then inoculated into sterile culture tubes with mixture of 60 g/L glucose, 20 g/L xylose, 10 g/L yeast extract (YE), 10 g/L KH2PO4, 2 g/L (NH4)2SO4, and 1 g/L MgSO4. Initial pH was adjusted to 5.5 with 4 N KOH. This revival culture was grown statically overnight at 37° C. It was transferred into shake flasks with 75 g/L glucose, 25 g/L xylose, 10 g/L yeast extract (YE), 10 g/L KH2PO4, 2 g/L (NH4)2SO4, and 1 g/L MgSO4. Initial pH was adjusted to 5.5 with 4 N KOH. Growth was monitored by measuring OD600. When the OD reached approximately 5, a certain volume of the seed was withdrawn into a sterile syringe for inoculation.
In a sterilized 1-liter fermentor (BIOSTAT® B-DCU system, Sartorius BBI System Inc., Bethlehem, Pa., USA), 50 ml of ZW658 strain seed culture at Optical Density of approximately 5 (measured at 600 nm) was inoculated into 450 ml of aqueous solution containing sugars and medium. The final mixed broth contained 100 g/L glucose, 85.1 g/L xylose, 10 g/L yeast extract (YE), 2 g/L KH2PO4, and 10 mM sorbitol. pH was adjusted to 5.5 with 4 N KOH solution. Mixing speed was set at 150 rpm. Fermentation was conducted at 33° C. and pH 5.5. Samples were taken periodically. Samples were filtered through 0.22 micron filters, and the filtrates were analyzed by HPLC as described in General Methods for compounds including glucose, xylose, ethanol, and acetate. Samples were also diluted with medium (as described in General Methods) and the OD600 was measured to monitor cell growth. […] The by-product xylitol concentration was 0.67 g/L at 29 hr, and increased to 0.95 g/L at 64 hr.
In a sterilized 1-liter fermentor (BIOSTAT® B-DCU system, Sartorius BBI System Inc., Bethlehem, Pa., USA), 50 ml of ZW658 strain seed culture at OD600 of approximately 5 was inoculated into 450 ml of aqueous solution containing sugars and medium. The final mixed broth contained 98.0 g/L glucose, 81.2 g/L xylose, 10 g/L yeast extract (YE), 2 g/L KH2PO4, and 10 mM potassium glutamate. pH was adjusted to 5.5 with 4 N KOH solution. Mixing speed was set at 150 rpm. Fermentation was conducted at 33° C. and pH 5.5. Samples were taken periodically. Samples were filtered through 0.22 micron filters, and the filtrates were analyzed by HPLC as described in General Methods for compounds including glucose, xylose, xylitol, ethanol, and acetic acid. Samples were also diluted with medium (as described in General Methods) and the OD600 was measured to monitor cell growth. […] However, xylose was not well-utilized, cell growth and ethanol production were reduced as compared to that in the presence of sorbitol (Example 4), and xylitol production increased.

Assay [3] concerns ZW658 strain. As to the kind of experiment: Tube fermentation of ZW658 on glucose and xylose with various sugar alcohols (Example 13). As to conditions: for ethanol production / xylose utilization: sugar alcohol in the medium vs control. Here is the method:
as §1, §2
In eight sterilized 50 ml screw-cap centrifuge tubes (Cat. No. 21008-178, VWR International, USA), 200 μl of ZW658 strain glycerol stock at OD600 of approximately 10 was inoculated into each flask with 25 ml of aqueous solution containing 92 g/L glucose, 82 g/L xylose, 10 g/L yeast extract (YE), 2 g/L KH2PO4, 1 g/L MgSO4.7H2O, and either 10 mM of sorbitol, arabitol, adonitol (also called ribitol), or galactitol; or 50 mM of arabitol, adonitol, or galactitol. The control had no sugar alcohol added. Initial pH was adjusted to 5.5 with 4 N H3PO4 solution. Fermentation was conducted at 33° C. and pH was not controlled. Samples were taken periodically between 0 and 40 hr. Samples were filtered through 0.22 micron filters, and the filtrates were analyzed by HPLC as described in General Methods for glucose, xylose, xylitol, and ethanol. Samples were diluted with medium (as described in General Methods) and the OD600 was measured to monitor cell growth. Results of growth and glucose utilization are given in FIGS. 20A and 20B, respectively. Results of xylose utilization and ethanol production are given in FIGS. 21A and 21B, respectively. Cultures with sorbitol or galactitol grew much faster and better than the control. Cultures with adonitol also grew better. After 40 hours, the OD600 were 7 to 8, for cultures supplemented with sorbitol or galactitol; the OD600 were about 5, for cultures supplemented with adonitol; while the OD600 were less than 1 for other cultures. […] The presence of sorbitol, galactitol, or adonitol allowed more xylose utilization, without production of xylitol.

Assay [4] relates to ZW658 strain. As to the kind of experiment: Flask fermentation of ZW658 on glucose and xylose with acetate and various polyols. As to conditions: 10 mM polyol, 3 g/L acetate; for OD600: after 32 hours, total sugar about 160 g/L. As for the experimental part: as §1, §2, §3
In five sterilized 125 ml Erlenmeyer culture flasks (Cat. No. 30180-036, VWR International, USA), 10 ml of ZW658 strain seed culture at OD600 of approximately 5 was inoculated into each flask with 100 ml of aqueous solution containing 100 g/L glucose, 80 g/L xylose, 3 g/L acetate, 10 g/L yeast extract (YE), 2 g/L KH2PO4, 1 g/L MgSO4.7H2O, and 4 g/L KHCO3, and 10 mM of the following polyols: erythritol, sorbitol, mannitol, maltitol, or lactitol; or 5 mM sorbitol plus 5 mM maltitol, or 5 mM sorbitol plus 5 mM lactitol. After inoculation, the total sugar concentration was about 160 g/L due to dilution by the seed culture. Initial pH was adjusted to 5.5 with 4 N H3PO4 solution. Mixing speed was set at 150 rpm. Fermentation was conducted at 33° C. and pH was not controlled. Samples were taken periodically. Samples were filtered through 0.22 micron filters, and the filtrates were analyzed by HPLC as described in General Methods for compounds including glucose, xylose, ethanol, and acetate. Samples were diluted with medium (as described in General Methods) and the OD600 was measured to monitor cell growth.

Assay [5] relates to ZW658 strain. Nature of the assay: Flask fermentation of ZW658 on glucose and xylose with various polyols. The following applies: 10 mM polyol; for ethanol production / xylose utilization: mixed sugars; for OD600: after 32 hours, total sugar about 160 g/L, 33° C. As for the experimental part:
as §1, §2, §3
In five sterilized 125 ml Erlenmeyer culture flasks (Cat. No. 30180-036, VWR International, USA), 10 ml of ZW658 strain seed culture at OD600 of approximately 5 was inoculated into each flask with 100 ml of aqueous solution containing 100 g/L glucose, 80 g/L xylose, 10 g/L yeast extract (YE), 2 g/L KH2PO4, 1 g/L MgSO4.7H2O, and 4 g/L KHCO3, and 10 mM of one of the following polyols: erythritol, sorbitol, mannitol, maltitol, or lactitol. After inoculation, the total sugar concentration was about 160 g/L due to dilution by the seed culture. Initial pH was adjusted to 5.5 with 4 N H3PO4 solution. Mixing speed was set at 150 rpm. Fermentation was conducted at 33° C. and pH was not controlled. Samples were taken periodically. Samples were filtered through 0.22 micron filters, and the filtrates were analyzed by HPLC as described in General Methods for compounds including glucose, xylose, ethanol, xylitol, and acetic acid. Samples were diluted with medium (as described in General Methods) and the OD600 was measured to monitor cell growth. […] Cultures with sorbitol or mannitol grew faster and better. After 32 hours, the OD600 were 13.94 and 13.92, respectively, for cultures supplemented with sorbitol or mannitol; meanwhile, the OD600 were 9.48, 9.02, and 9.24, respectively, for cultures supplemented with erythritol, maltitol, or lactitol. […] The presence of sorbitol or mannitol allowed more xylose utilization, without production of xylitol.

Setting [6] is: after 63.75 hours, 10 mM potassium glutamate.
Where [7] appears, read: in the presence of glutamate, mixed sugars.

Consider `OC[C@@H](O)[C@@H](O)[C@H](O)[C@@H](O)CO` [D-sorbitol], for which, in assay [1] (10 mM sugar alcohol vs control), the ethanol production entry was “ethanol production was also better” and the xylose utilization result was “More xylose was utilized”. This compound gave an OD600 in assay [1] (after 48 hours, 10 mM sugar alcohol, 92 g/L glucose, 82 g/L xylose) of 6.2.
For `N[C@@H](CCC(=O)[O-])C(=O)[O-].[K+].[K+]` [glutamate, potassium glutamate, reference compound], in assay [2] (10 mM potassium glutamate), the “effect on lag period” value is “reduced the lag period” and the “time at which glucose concentration reached 0” value was determined as 24 h. Besides, in assay [2] (setting [6]), the “OD600 cells grew to” value is given as 6.9, the by-product xylitol concentration amounted to 4.38 g/L and the ethanol concentration is recorded as 72.3 g/L. In addition, the xylose concentration in assay [2] (after 63.75 hours, 98.0 g/L glucose, 81.2 g/L xylose, 10 mM potassium glutamate) was found to be 21.2 g/L. This compound also displayed a glucose concentration in assay [2] (after 63.75 hours, 98.0 g/L glucose, 81.2 g/L xylose, 10 mM potassium glutamate, 33° C., pH 5.5) of 0 g/L. In assay [2] (setting [7]), the “effect on ethanol production” value was “ethanol production is not improved”, the “effect on xylitol production” value is recorded as “xylitol production is not reduced” and the “effect on xylose utilization” value is “xylose utilization is not enhanced”.
Turning to `OC[C@@H](O)[C@H](O)[C@H](O)[C@@H](O)CO` [galactitol], in assay [3], the ethanol production result is “ethanol production was also better” and the xylose utilization result is recorded as “More xylose was utilized”.
Compound `OC[C@@H](O)[C@@H](O[C@H]1O[C@H](CO)[C@@H](O)[C@H](O)[C@H]1O)[C@H](O)[C@@H](O)CO` [maltitol] registered an OD600 in assay [4] of 5.20. For the same compound, in assay [5], the ethanol production entry is on record as “do not increase ethanol production”, the xylose utilization entry is on record as “nor do they increase xylose utilization” and the OD600 is 9.02.
In the case of `OC[C@@H](O)[C@@H](O)[C@H](O)[C@H](O)CO` [mannitol], in assay [4], the ethanol production entry is on record as “ethanol production was also better”, the xylose utilization entry is given as “More xylose was utilized” and the OD600 turned out to be 7.40. Besides, in assay [5], the ethanol production result was “ethanol production was also better”, the xylose utilization entry is given as “More xylose was utilized” and the OD600 worked out at 13.92.
`OC[C@@H](O)[C@@H](O)CO` [erythritol] displayed an OD600 in assay [4] of 5.20. Moreover, in assay [5], the ethanol production result is reported as “do not increase ethanol production”, the xylose utilization result was “nor do they increase xylose utilization” and the OD600 came to 9.48.
Consider `OC[C@@H](O)[C@@H](O[C@@H]1O[C@H](CO)[C@H](O)[C@H](O)[C@H]1O)[C@H](O)[C@@H](O)CO` [lactitol], for which the OD600 in assay [4] is given as 5.30. Further, in assay [5], the ethanol production result was “do not increase ethanol production”, the xylose utilization entry is “nor do they increase xylose utilization” and the OD600 was found to be 9.24.
On to `OC[C@@H](O)[C@@H](O)[C@@H](O)CO` [adonitol], for which the OD600 entry in assay [3] (after 40 hours, 10 mM sorbitol, 10 mM or 50 mM other sugar alcohols, 92 g/L glucose, 82 g/L xylose) is “about 5”. Moreover, in assay [3], the ethanol production result is “ethanol production was also better” and the xylose utilization result is “More xylose was utilized”.

The values are drawn from patent US7629156B2, “Ethanol production in fermentation of mixed sugars containing xylose” (E.I. du Pont de Nemours and Company, priority 2006, dated 2009).
